Measured values: ChEMBL document CHEMBL1641539 (Bioorg Med Chem Lett, 2011)

What was measured:
[1] = target: Ephrin type-A receptor 5 (Homo sapiens) (UniProt P54756); test: Inhibition of human EphA5 at 10 uM after 60 mins by TR-FRET assay; settings: values are per cent of control
[2] = target: Mitogen-activated protein kinase 8 (Homo sapiens, UniProt P45983); test: Inhibition of human JNK1alpha1 at 10 uM after 60 mins by TR-FRET assay; settings: values are per cent of control
[3] = target: Serine/threonine-protein kinase 4 (Homo sapiens) (UniProt Q13043); test: Inhibition of human MST1 at 10 uM after 60 mins by TR-FRET assay; settings: values are per cent of control
[4] = target: Ribosomal protein S6 kinase alpha-6 (Homo sapiens) (UniProt Q9UK32); test: Inhibition of human Rsk4 at 10 uM after 60 mins by TR-FRET assay; settings: values are per cent of control
[5] = target: Focal adhesion kinase 1 (Homo sapiens) (UniProt Q05397); test: Inhibition of human FAK at 10 uM after 60 mins by TR-FRET assay; values are per cent of control
[6] = target: Insulin receptor-related protein (Homo sapiens) (UniProt P14616); test: Inhibition of human IRR at 10 uM after 60 mins by TR-FRET assay; values are per cent of control
[7] = target: ALK tyrosine kinase receptor (Homo sapiens) (UniProt Q9UM73); test: Inhibition of human ALK at 10 uM after 60 mins by TR-FRET assay; values are per cent of control
[8] = target: Protein-tyrosine kinase 6 (Homo sapiens) (UniProt Q13882); test: Inhibition of human BRK at 10 uM after 60 mins by TR-FRET assay; values are per cent of control
Homo sapiens = species: Homo sapiens; test: Inhibition of human PKA at 10 uM after 60 mins by TR-FRET assay; values are per cent of control
[9] = target: Mitogen-activated protein kinase kinase kinase 7 (Homo sapiens) (UniProt O43318); test: Inhibition of human TAK1 at 10 uM after 60 mins by TR-FRET assay; values are per cent of control
[10] = target: Serine/threonine-protein kinase tousled-like 2 (Homo sapiens) (UniProt Q86UE8); test: Inhibition of human TLK2 at 10 uM after 60 mins by TR-FRET assay; values are per cent of control
[11] = target: BDNF/NT-3 growth factors receptor (Homo sapiens) (UniProt Q16620); test: Inhibition of human TrkB at 10 uM after 60 mins by TR-FRET assay; values are per cent of control
[12] = target: NUAK family SNF1-like kinase 1 (Homo sapiens) (UniProt O60285); test: Inhibition of human ARK5 at 10 uM after 60 mins by TR-FRET assay; values are per cent of control
[13] = target: Serine/threonine-protein kinase PLK1 (Homo sapiens) (UniProt P53350); test: Inhibition of human Plk1 at 10 uM after 60 mins by TR-FRET assay; values are per cent of control
[14] = target: Serine/threonine-protein kinase N2 (Homo sapiens) (UniProt Q16513); test: Inhibition of human PRK2 at 10 uM after 60 mins by TR-FRET assay; values are per cent of control
[15] = target: Protein-tyrosine kinase 2-beta (Homo sapiens) (UniProt Q14289); test: Inhibition of human Pyk2 at 10 uM after 60 mins by TR-FRET assay; values are per cent of control
[16] = target: Homeodomain-interacting protein kinase 3 (Homo sapiens) (UniProt Q9H422); test: Inhibition of human HIPK3 at 10 uM after 60 mins by TR-FRET assay; values are per cent of control
[17] = target: Mitogen-activated protein kinase 1 (Mus musculus) (UniProt P63085); test: Inhibition of mouse MAPK2 at 10 uM after 60 mins by TR-FRET assay; values are per cent of control
[18] = target: Mast/stem cell growth factor receptor Kit (Homo sapiens) (UniProt P10721); test: Inhibition of human c-Kit at 10 uM after 60 mins by TR-FRET assay; values are per cent of control
[19] = target: Insulin-like growth factor 1 receptor (Homo sapiens) (UniProt P08069); test: Inhibition of human IGF-1R at 10 uM after 60 mins by TR-FRET assay; values are per cent of control
[20] = target: Protein kinase C eta type (Homo sapiens) (UniProt P24723); test: Inhibition of human PKCeta at 10 uM after 60 mins by TR-FRET assay; values are per cent of control
[21] = target: RAC-alpha serine/threonine-protein kinase (Homo sapiens) (UniProt P31749); test: Inhibition of human PKBalpha at 10 uM after 60 mins by TR-FRET assay; values are per cent of control
[22] = target: Glycogen synthase kinase-3 beta (Homo sapiens) (UniProt P49841); test: Inhibition of human GSK3-beta at 10 uM after 60 mins by TR-FRET assay; values are per cent of control
[23] = target: Serine/threonine-protein kinase MRCK alpha (Homo sapiens) (UniProt Q5VT25); test: Inhibition of human MRCKalpha at 10 uM after 60 mins by TR-FRET assay; values are per cent of control
[24] = target: Phosphorylase b kinase gamma catalytic chain, liver/testis isoform (Homo sapiens) (UniProt P15735); test: Inhibition of human PhKgamma2 at 10 uM after 60 mins by TR-FRET assay; values are per cent of control
[25] = test system: Tyrosine-protein kinase ABL1 (Homo sapiens), P00519 [M351T]; test: Inhibition of human Abl M351T mutant at 10 uM after 60 mins by TR-FRET assay; values are per cent of control
[26] = test system: Mast/stem cell growth factor receptor Kit (Homo sapiens), P10721 [D816V]; test: Inhibition of human c-Kit D816V mutant at 10 uM after 60 mins by TR-FRET assay; values are per cent of control
[27] = test system: Mast/stem cell growth factor receptor Kit (Homo sapiens), P10721 [D816H]; test: Inhibition of human c-Kit D816H mutant at 10 uM after 60 mins by TR-FRET assay; values are per cent of control

Chain of Serine/threonine-protein kinase PLK1 (Homo sapiens) (P53350 whole entry): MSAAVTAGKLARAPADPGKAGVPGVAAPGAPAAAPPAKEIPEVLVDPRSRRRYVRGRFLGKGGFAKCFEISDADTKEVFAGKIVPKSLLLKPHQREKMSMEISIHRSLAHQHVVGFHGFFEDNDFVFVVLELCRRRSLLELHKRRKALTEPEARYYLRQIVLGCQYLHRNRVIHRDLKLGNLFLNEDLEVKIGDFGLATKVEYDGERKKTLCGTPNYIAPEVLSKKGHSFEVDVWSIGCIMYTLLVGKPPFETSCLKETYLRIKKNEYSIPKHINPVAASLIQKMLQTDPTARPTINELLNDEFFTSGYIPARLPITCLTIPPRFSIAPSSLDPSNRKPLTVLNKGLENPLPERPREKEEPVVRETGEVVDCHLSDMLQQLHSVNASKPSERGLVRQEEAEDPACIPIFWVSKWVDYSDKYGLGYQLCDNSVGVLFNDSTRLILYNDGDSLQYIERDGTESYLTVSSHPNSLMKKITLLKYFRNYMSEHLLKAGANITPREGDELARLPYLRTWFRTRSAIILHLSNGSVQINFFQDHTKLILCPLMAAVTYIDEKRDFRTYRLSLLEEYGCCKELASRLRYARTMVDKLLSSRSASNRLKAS
Chain of Mitogen-activated protein kinase 1 (Mus musculus) (P63085 whole entry): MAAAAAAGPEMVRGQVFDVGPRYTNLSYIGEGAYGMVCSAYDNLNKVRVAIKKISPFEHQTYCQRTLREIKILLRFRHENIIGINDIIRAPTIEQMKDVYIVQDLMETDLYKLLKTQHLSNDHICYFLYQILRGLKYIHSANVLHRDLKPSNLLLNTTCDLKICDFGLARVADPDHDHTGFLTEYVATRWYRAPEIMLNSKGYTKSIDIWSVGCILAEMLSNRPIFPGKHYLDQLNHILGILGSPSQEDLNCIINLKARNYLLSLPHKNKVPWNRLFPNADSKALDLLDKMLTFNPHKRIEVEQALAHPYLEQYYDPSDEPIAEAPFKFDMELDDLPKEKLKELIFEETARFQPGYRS
Chain of Insulin receptor-related protein (Homo sapiens) (P14616 27-742 limits assumed): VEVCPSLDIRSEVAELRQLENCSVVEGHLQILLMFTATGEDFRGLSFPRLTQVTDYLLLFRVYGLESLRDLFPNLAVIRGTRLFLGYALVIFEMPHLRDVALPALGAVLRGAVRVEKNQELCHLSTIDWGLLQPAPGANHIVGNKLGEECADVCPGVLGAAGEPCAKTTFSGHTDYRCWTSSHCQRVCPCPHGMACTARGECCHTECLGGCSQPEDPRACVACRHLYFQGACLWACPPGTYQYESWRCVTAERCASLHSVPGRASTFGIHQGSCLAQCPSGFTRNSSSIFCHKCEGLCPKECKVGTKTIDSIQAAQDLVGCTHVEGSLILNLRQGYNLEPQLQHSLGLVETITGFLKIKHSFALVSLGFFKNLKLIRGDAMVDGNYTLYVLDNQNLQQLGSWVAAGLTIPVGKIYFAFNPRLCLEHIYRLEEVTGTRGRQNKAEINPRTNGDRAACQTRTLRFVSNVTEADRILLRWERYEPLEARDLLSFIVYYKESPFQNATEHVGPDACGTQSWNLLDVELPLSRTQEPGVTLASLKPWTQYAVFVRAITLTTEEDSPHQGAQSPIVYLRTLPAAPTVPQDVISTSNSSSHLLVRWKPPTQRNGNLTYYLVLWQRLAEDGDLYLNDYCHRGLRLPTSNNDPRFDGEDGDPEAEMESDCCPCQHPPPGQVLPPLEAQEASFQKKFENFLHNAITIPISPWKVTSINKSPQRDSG
Chain of Insulin receptor-related protein (Homo sapiens) (P14616 747-1297 limits assumed): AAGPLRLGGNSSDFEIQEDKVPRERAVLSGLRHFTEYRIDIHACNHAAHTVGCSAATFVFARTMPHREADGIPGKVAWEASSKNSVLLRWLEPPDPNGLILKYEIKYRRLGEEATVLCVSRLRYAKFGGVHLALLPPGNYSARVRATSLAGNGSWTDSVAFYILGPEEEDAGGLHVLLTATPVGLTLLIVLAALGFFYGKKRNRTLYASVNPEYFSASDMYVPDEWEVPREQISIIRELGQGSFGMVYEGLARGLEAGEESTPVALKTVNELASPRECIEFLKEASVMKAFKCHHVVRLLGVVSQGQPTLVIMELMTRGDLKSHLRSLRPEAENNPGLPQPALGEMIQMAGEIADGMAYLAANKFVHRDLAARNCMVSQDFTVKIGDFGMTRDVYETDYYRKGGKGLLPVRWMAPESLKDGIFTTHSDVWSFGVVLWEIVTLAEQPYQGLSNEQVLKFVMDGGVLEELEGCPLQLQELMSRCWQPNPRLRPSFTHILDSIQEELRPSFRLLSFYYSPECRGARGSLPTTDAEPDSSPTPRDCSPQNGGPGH
Chain of Serine/threonine-protein kinase 4 (Homo sapiens) (Q13043 whole entry): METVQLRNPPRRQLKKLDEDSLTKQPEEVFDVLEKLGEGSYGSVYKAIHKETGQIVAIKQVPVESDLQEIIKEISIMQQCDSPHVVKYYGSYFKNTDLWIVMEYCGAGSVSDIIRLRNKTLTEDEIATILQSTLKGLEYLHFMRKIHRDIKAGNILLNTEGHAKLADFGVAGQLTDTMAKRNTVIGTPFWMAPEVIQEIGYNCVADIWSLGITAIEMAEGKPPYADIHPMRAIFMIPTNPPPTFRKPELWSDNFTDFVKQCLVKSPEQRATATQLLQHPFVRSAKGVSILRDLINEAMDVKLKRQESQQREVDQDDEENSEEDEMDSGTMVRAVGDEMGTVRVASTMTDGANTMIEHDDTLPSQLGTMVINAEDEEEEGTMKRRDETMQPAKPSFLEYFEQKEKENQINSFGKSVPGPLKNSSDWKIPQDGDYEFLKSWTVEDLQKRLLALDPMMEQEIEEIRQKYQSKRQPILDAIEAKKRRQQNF
Chain of Ribosomal protein S6 kinase alpha-6 (Homo sapiens) (Q9UK32 whole entry, looked up): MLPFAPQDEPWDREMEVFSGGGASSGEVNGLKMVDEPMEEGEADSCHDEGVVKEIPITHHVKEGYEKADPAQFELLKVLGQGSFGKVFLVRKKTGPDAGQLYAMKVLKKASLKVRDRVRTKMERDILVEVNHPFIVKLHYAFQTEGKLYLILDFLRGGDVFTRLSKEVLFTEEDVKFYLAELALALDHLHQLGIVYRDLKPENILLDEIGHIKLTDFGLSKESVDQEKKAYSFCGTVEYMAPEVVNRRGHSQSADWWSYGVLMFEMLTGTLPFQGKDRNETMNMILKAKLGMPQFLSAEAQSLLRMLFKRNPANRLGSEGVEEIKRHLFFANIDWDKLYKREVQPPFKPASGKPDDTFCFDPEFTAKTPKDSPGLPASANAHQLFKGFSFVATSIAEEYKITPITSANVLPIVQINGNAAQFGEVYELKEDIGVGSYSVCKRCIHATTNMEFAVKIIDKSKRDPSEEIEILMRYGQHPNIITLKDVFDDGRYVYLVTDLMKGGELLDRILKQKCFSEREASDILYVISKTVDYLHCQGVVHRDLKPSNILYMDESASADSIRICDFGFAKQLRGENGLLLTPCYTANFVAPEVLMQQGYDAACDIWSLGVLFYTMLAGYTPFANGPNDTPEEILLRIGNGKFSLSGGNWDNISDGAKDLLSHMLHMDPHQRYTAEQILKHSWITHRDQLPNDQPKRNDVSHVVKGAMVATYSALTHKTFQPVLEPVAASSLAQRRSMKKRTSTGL
Chain of Phosphorylase b kinase gamma catalytic chain, liver/testis isoform (Homo sapiens) (P15735 whole entry, canonical isoform): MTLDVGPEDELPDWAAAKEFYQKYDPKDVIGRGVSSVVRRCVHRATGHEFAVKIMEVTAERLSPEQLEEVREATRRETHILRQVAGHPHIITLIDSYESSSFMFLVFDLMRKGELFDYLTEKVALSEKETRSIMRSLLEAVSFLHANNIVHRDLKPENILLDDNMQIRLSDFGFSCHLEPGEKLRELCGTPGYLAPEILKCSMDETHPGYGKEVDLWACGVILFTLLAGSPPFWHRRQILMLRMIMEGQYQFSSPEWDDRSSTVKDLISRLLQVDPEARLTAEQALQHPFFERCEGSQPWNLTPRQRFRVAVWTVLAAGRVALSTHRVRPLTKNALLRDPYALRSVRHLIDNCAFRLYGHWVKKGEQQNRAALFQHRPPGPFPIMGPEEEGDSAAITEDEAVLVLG
Chain of Protein-tyrosine kinase 2-beta (Homo sapiens) (Q14289 whole entry, looked up): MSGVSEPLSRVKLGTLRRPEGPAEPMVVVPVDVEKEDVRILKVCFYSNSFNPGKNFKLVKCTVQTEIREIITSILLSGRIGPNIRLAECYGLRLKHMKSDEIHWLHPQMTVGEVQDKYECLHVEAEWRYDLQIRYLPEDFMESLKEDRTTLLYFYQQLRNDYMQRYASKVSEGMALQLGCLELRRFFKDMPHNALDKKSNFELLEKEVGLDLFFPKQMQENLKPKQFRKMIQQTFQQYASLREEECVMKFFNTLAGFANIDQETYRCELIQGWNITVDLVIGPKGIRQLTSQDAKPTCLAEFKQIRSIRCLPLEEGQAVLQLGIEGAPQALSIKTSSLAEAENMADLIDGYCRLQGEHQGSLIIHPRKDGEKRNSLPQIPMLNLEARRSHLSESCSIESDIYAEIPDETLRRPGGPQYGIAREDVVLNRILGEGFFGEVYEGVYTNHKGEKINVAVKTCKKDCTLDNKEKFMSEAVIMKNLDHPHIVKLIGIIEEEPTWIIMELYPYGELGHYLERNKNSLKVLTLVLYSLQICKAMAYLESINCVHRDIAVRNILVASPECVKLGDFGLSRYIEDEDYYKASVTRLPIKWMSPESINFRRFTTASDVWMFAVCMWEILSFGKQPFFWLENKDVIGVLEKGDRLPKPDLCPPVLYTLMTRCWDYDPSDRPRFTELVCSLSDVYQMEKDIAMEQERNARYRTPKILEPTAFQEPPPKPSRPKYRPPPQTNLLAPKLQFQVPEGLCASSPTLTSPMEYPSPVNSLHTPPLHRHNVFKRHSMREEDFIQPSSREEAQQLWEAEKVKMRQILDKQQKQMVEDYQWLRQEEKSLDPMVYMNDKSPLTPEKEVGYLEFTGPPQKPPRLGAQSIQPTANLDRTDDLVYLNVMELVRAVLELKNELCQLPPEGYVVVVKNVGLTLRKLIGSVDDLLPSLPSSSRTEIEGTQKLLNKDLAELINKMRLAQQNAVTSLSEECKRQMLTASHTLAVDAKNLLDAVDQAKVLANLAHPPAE

Compound: S=c1[nH]nc(-c2ccncc2)n1-c1ccc2ccccc2c1
- residual activity [1]: 110%
- residual activity [2]: 110%
- residual activity [3]: 112%
- residual activity [4]: 109%
- residual activity [5]: 106%
- residual activity [6]: 111%
- residual activity [7]: 101%
- residual activity [8]: 101%
- residual activity (Homo sapiens): 93%
- residual activity [9]: 89%
- residual activity [10]: 110%
- residual activity [11]: 114%
- residual activity [12]: 103%
- residual activity [13]: 90%
- residual activity [14]: 112%
- residual activity [15]: 98%
- residual activity [16]: 109%
- residual activity [17]: 114%
- residual activity [18]: 108%
- residual activity [19]: 115%
- residual activity [20]: 107%
- residual activity [21]: 99%
- residual activity [22]: 90%
- residual activity [23]: 105%
- residual activity [24]: 109%
- residual activity [25]: 109%
- residual activity [26]: 113%
- residual activity [27]: 114%
